In ChEMBL document CHEMBL1122339, “Structure-activity studies of configurationally rigid arylprostaglandins” (1983):
Calls of active or inactive are those of the source. No cut-off for these calls is given here.

What was measured:
Cavia porcellus = species: Cavia porcellus; assay: In vitro potency relative to PGE-2 (=100 for uterine stimulant activity in guinea pig at 0.1-10 ug/mL concentration); type: functional
Mus musculus [1] = assay: In vivo potency relative to PGE-2 =100 for diarrheal activity in conscious mice at 0.3-3.0 mg/kg, iv; No effect; type: functional, organism-based
Mus musculus [2] = assay: In vivo potency relative to PGE-2 =100 for diarrheal activity in conscious mice.; type: functional

Structure (SMILES)	Relative potency (Cavia porcellus)	Relative potency (Mus musculus [1])	Relative potency (Mus musculus [2])
O=C(O)CCC/C=C\C[C@@H]1C(/C=C/[C@H](O)[C@H]2CCc3ccccc3O2)[C@H](O)C[C@@H]1O (stereo partly drawn)	0.8		
O=C(O)CCC/C=C\C[C@H]1C(=O)C[C@@H](O)C1/C=C/[C@H](O)[C@H]1CCc2ccccc2C1 (stereo partly drawn)	0.1	inactive	
O=C(O)CCC/C=C\C[C@H]1C(=O)C[C@@H](O)C1/C=C/[C@H](O)[C@@H]1CCc2ccccc2C1 (stereo partly drawn)	2		
O=C(O)CCC/C=C\C[C@@H]1C(/C=C/[C@H](O)[C@H]2CCc3ccccc3C2)[C@H](O)C[C@@H]1O (stereo partly drawn)	0.1		
O=C(O)CCC/C=C\C[C@@H]1C(/C=C/[C@@H](O)[C@H]2Cc3ccccc3O2)[C@H](O)C[C@@H]1O (stereo partly drawn)	0.2		10
O=C(O)CCC/C=C\C[C@@H]1C(/C=C/[C@@H](O)C2Cc3ccccc3C2)[C@H](O)C[C@@H]1O (stereo partly drawn)	0.3		50
O=C(O)CCC/C=C\C[C@H]1C(=O)C[C@@H](O)C1/C=C/[C@@H](O)[C@@H]1Cc2ccccc2O1 (stereo partly drawn)	18		>250
O=C(O)CCC/C=C\C[C@H]1C(=O)C[C@@H](O)C1/C=C/[C@@H](O)C1Cc2ccccc2C1 (stereo partly drawn)	6		25
O=C(O)CCC/C=C\C[C@H]1C(=O)C[C@@H](O)C1/C=C/[C@H](O)C1Cc2ccccc2C1 (stereo partly drawn)	0.3	inactive	
O=C(O)CCC/C=C\C[C@@H]1C(/C=C/[C@H](O)C2Cc3ccccc3O2)[C@H](O)C[C@@H]1O (stereo partly drawn)	0.3		15
O=C(O)CCC/C=C\C[C@@H]1C(/C=C/[C@H](O)[C@@H]2CCc3ccccc3O2)[C@H](O)C[C@@H]1O (stereo partly drawn)	0.4		
O=C(O)CCC/C=C\C[C@H]1C(=O)C[C@@H](O)C1/C=C/[C@@H](O)[C@H]1Cc2ccccc2O1 (stereo partly drawn)	0.1	inactive	
O=C(O)CCC/C=C\C[C@@H]1C(/C=C/[C@@H](O)[C@H]2CCc3ccccc3C2)[C@H](O)C[C@@H]1O (stereo partly drawn)	2		10
O=C(O)CCC/C=C\C[C@H]1C(=O)C[C@@H](O)C1/C=C/[C@@H](O)[C@H]1CCc2ccccc2O1 (stereo partly drawn)	66		270
O=C(O)CCC/C=C\C[C@H]1C(=O)C[C@@H](O)C1/C=C/[C@H](O)C1Cc2ccccc2O1 (stereo partly drawn)	19		15
O=C(O)CCC/C=C\C[C@@H]1C(/C=C/[C@@H](O)[C@H]2CCc3ccccc3O2)[C@H](O)C[C@@H]1O (stereo partly drawn)	19		310
O=C(O)CCC/C=C\C[C@@H]1C(/C=C/[C@H](O)[C@@H]2CCc3ccccc3C2)[C@H](O)C[C@@H]1O (stereo partly drawn)	0.1		
O=C(O)CCC/C=C\C[C@H]1C(=O)C[C@@H](O)C1/C=C/[C@@H](O)[C@H]1CCc2ccccc2C1 (stereo partly drawn)	44	inactive	
O=C(O)CCC/C=C\C[C@@H]1C(/C=C/[C@@H](O)[C@@H]2CCc3ccccc3C2)[C@H](O)C[C@@H]1O (stereo partly drawn)	18		40
O=C(O)CCC/C=C\C[C@H]1C(=O)C[C@@H](O)C1/C=C/[C@H](O)[C@H]1CCc2ccccc2O1 (stereo partly drawn)	3		
O=C(O)CCC/C=C\C[C@@H]1C(/C=C/[C@@H](O)[C@@H]2Cc3ccccc3O2)[C@H](O)C[C@@H]1O (stereo partly drawn)	5		190
O=C(O)CCC/C=C\C[C@H]1C(=O)C[C@@H](O)C1/C=C/[C@H](O)[C@@H]1CCc2ccccc2O1 (stereo partly drawn)	7		
O=C(O)CCC/C=C\C[C@H]1C(=O)C[C@@H](O)C1/C=C/[C@@H](O)[C@@H]1CCc2ccccc2C1 (stereo partly drawn)	36		40
O=C(O)CCC/C=C\C[C@@H]1C(/C=C/[C@H](O)COc2ccccc2)[C@H](O)C[C@@H]1O (stereo partly drawn)	300		
O=C(O)CCC/C=C\C[C@H]1C(=O)C[C@@H](O)C1/C=C/[C@@H](O)[C@@H]1CCc2ccccc2O1 (stereo partly drawn)	130		730
O=C(O)CCC/C=C\C[C@@H]1C(/C=C/[C@@H](O)COc2ccccc2)[C@H](O)C[C@@H]1O (stereo partly drawn)	15		150
O=C(O)CCC/C=C\C[C@@H]1C(/C=C/[C@H](O)C2Cc3ccccc3C2)[C@H](O)C[C@@H]1O (stereo partly drawn)	0.07	inactive	
O=C(O)CCC/C=C\C[C@@H]1C(/C=C/[C@@H](O)[C@@H]2CCc3ccccc3O2)[C@H](O)C[C@@H]1O (stereo partly drawn)	25		1100
